Read-outs that look alike come from different tables or passages of the source.
Assay: PK characteristics in humans (plasma, LC/MS/MS)
Format: in vivo, human
Conditions: for Cmax / half-life / Tmax / AUC(0-t): human, plasma; for Cmax: read-out: Cmax; for Tmax: read-out: Tmax
Experimental: A pharmaceutical formulation of the disclosure comprising the active ingredient N-(3-(2-(6-amino-4-(trifluoromethyl)pyridin-3-yl)-4-morpholinopyrido[3,2-d]pyrimidin-6-yl)-2-fluorophenyl)-3-fluoropropane-1-sulfonamide was evaluated for safety/tolerability and preliminary efficacy in eligible human subjects with advanced solid tumors, and the pharmacokinetic (PK) profile of the active ingredient was investigated for each subject. Eligibility criteria for inclusion in this study included:
Fifteen eligible patients were enrolled in total daily dose levels ranging from 10-800 mg per day of the active ingredient, provided as 10-mg, 20-mg, 80-mg and 120-mg tablets for oral administration. Dose escalation is ongoing. All study medication supplies were provided by Asana BioSciences, LLC (Bridgewater, N.J.). The tablets were administered orally every 12-24 hours on an empty stomach (either 1 hour before or 2 hours after a meal or snack) with approximately 240 mL of water. On study days in which there was a single plasma PK sample taken, the subject was instructed to fast for at least 2 hours prior to collection of the PK sample. On study days with multiple plasma PK samples taken, the subject was instructed to fast overnight (at least 8 hours prior to study drug administration) and remain fasting for 2 hours after study drug administration. The date and time of the dose(s) taken prior to or on PK sampling days were collected by the study site or catalogued via a diary card provided to the subject.
An ultra performance liquid chromatographic method was used for the determination of the active ingredient in human EDTA K2 plasma. This method was validated over an analytical range of 0.5 to 500 ng/mL. Calibration standards (CS) and quality control (QC) samples at three or four levels of concentrations were prepared fresh from the appropriate working solutions which were stored at −20° C. The human EDTA K2 plasma used for the preparation of CS and QC samples was obtained from Bioreclamation (Westbury, Pa., USA) and analyzed to determine possible interference with the analyte or the internal standard, and no significant interference was observed. The following parameters were used to determine analyte levels in the plasma samples: […]

[1] = oral, 40 mg, Day 15, 40 mg, n=2, mean
[2] = oral, 40 mg, steady state, 40 QD mg, n=2, mean, cancer patients
[3] = oral, 80 mg, Day 1, 80 mg, n=2, mean
[4] = oral, 80 mg, Day 15, 80 mg, n=2, mean
[5] = oral, 80 mg, steady state, 80 QD mg, n=2, mean, cancer patients
[6] = oral, 240 mg, Day 1, 240 mg, n=2, mean
[7] = oral, 240 mg, Day 15, 240 mg, n=2, mean
[8] = oral, 240 mg, steady state, 240 QD mg, n=2, mean, cancer patients
[9] = oral, 400 mg, Day 1, 400 bid mg, individual subjects
[10] = oral, 400 mg, Day 1, 400 bid mg, mean
[11] = oral, 400 mg, Day 15, 400 QD mg, n=2, mean
[12] = oral, 400 mg, Day 15, 400 bid mg, n=1
[13] = oral, 400 mg, steady state, 400 BID mg, n=1, cancer patients
[14] = oral, 400 mg, steady state, 400 QD mg, n=2, mean, cancer patients

Nc1cc(C(F)(F)F)c(-c2nc(N3CCOCC3)c3nc(-c4cccc(NS(=O)(=O)CCCF)c4F)ccc3n2)cn1 [CMPD A, N-(3-(2-(6-amino-4-(trifluoromethyl)pyridin-3-yl)-4-morpholinopyrido[3,2-d]pyrimidin-6-yl)-2-fluorophenyl)-3-fluoropropane-1-sulfonamide]
Cmax [1]: 348 ng/mL | half-life (oral, 40 mg, Day 15, 40 mg, n=2, mean, read-out: T1/2 (converted)): 35.1 h | Tmax [1]: 4 h | AUC(0-t) (oral, 40 mg, steady state, 40 QD mg, n=2, mean, cancer patients, read-out: AUC0-24h): 5890 ng·h/mL | Cmax [2]: 348 ng/mL | Tmax [2]: 4 h | half-life (oral, 80 mg, Day 1, 80 mg, individual subject (other NC), read-out: T1/2 (converted)): 22.4 h | Cmax (oral, 80 mg, Day 1, 80 mg, individual subjects): 470 ng/mL | AUC(0-t) (oral, 80 mg, Day 1, 80 mg, n=2, mean, read-out: AUC0-24): 6050 ng·h/mL | Cmax [3]: 384 ng/mL | Tmax [3]: 14 h | half-life (oral, 80 mg, Day 15, 80 mg, individual subject (other NC), read-out: T1/2 (converted)): 48.7 h | AUC(0-t) (oral, 80 mg, Day 15, 80 mg, individual subjects, read-out: AUC0-24): 19000 ng·h/mL | Cmax (oral, 80 mg, Day 15, 80 mg, individual subjects): 931 ng/mL | AUC(0-t) (oral, 80 mg, Day 15, 80 mg, n=2, mean, read-out: AUC0-24): 20100 ng·h/mL | Cmax [4]: 1060 ng/mL | Tmax [4]: 14 h | AUC(0-t) (oral, 80 mg, steady state, 80 QD mg, n=2, mean, cancer patients, read-out: AUC0-24h): 20100 ng·h/mL | Cmax [5]: 1060 ng/mL | Tmax [5]: 14 h | AUC(0-t) (oral, 120 mg, Day 1, 120 mg, n=3, mean, read-out: AUC0-24): 6660 ng·h/mL | Cmax (oral, 120 mg, Day 1, 120 mg, n=3, mean): 509 ng/mL | half-life (oral, 120 mg, Day 1, 120 mg, n=3, mean, read-out: T1/2 (converted)): 24.9 h | Tmax (oral, 120 mg, Day 1, 120 mg, n=3): 4 h | AUC(0-t) (oral, 120 mg, Day 15, 120 mg, n=3, mean, read-out: AUC0-24): 10100 ng·h/mL | Cmax (oral, 120 mg, Day 15, 120 mg, n=3, mean): 728 ng/mL | half-life (oral, 120 mg, Day 15, 120 mg, n=3, mean, read-out: T1/2 (converted)): 24.1 h | Tmax (oral, 120 mg, Day 15, 120 mg, n=3): 4 h | Tmax (oral, 120 mg, steady state, 120 QD mg, n=3, cancer patients): 4 h | AUC(0-t) (oral, 120 mg, steady state, 120 QD mg, n=3, mean, cancer patients, read-out: AUC0-24h): 10100 ng·h/mL | Cmax (oral, 120 mg, steady state, 120 QD mg, n=3, mean, cancer patients): 728 ng/mL | AUC(0-t) (oral, 240 mg, Day 1, 240 mg, n=2, mean, read-out: AUC0-24): 6930 ng·h/mL | Cmax [6]: 520 ng/mL | half-life (oral, 240 mg, Day 1, 240 mg, n=2, mean, read-out: T1/2 (converted)): 17.5 h | Tmax [6]: 5 h | Tmax (oral, 240 mg, Day 15, 240 mg, individual subjects): 2 h | AUC(0-t) (oral, 240 mg, Day 15, 240 mg, n=2, mean, read-out: AUC0-24): 14900 ng·h/mL | Cmax [7]: 954 ng/mL | half-life (oral, 240 mg, Day 15, 240 mg, n=2, mean, read-out: T1/2 (converted)): 19.7 h | Tmax [7]: 2 h | AUC(0-t) (oral, 240 mg, steady state, 240 QD mg, n=2, mean, cancer patients, read-out: AUC0-24h): 14900 ng·h/mL | Cmax [8]: 954 ng/mL | Tmax [8]: 2 h | half-life (oral, 400 mg, Day 1, 400 QD mg, individual subjects, read-out: T1/2 (converted)): 15.2 h | AUC(0-t) (oral, 400 mg, Day 1, 400 QD mg, n=2, mean, read-out: AUC0-24): 15000 ng·h/mL | Cmax (oral, 400 mg, Day 1, 400 QD mg, n=2, mean): 1070 ng/mL | half-life (oral, 400 mg, Day 1, 400 QD mg, n=2, mean, read-out: T1/2 (converted)): 15.4 h | Tmax (oral, 400 mg, Day 1, 400 QD mg, n=2): 2 h | AUC(0-t) (oral, 400 mg, Day 1, 400 bid mg, individual subjects, read-out: AUC0-24): 32100 ng·h/mL | Cmax [9]: 2330 ng/mL | half-life (oral, 400 mg, Day 1, 400 bid mg, individual subjects, read-out: T1/2 (converted)): 22.5 h | Tmax [9]: 8 h | AUC(0-t) (oral, 400 mg, Day 1, 400 bid mg, mean, read-out: AUC0-24): 26300 ng·h/mL | Cmax [10]: 1880 ng/mL | half-life (oral, 400 mg, Day 1, 400 bid mg, mean, read-out: T1/2 (converted)): 18.6 h | Tmax [10]: 6 h | AUC(0-t) (oral, 400 mg, Day 15, 400 QD mg, individual subjects, read-out: AUC0-24): 25500 ng·h/mL | Cmax (oral, 400 mg, Day 15, 400 QD mg, individual subjects): 2770 ng/mL | half-life (oral, 400 mg, Day 15, 400 QD mg, individual subjects, read-out: T1/2 (converted)): 10.1 h | AUC(0-t) (oral, 400 mg, Day 15, 400 QD mg, n=2, mean, read-out: AUC0-24): 33400 ng·h/mL | Cmax [11]: 2850 ng/mL | half-life (oral, 400 mg, Day 15, 400 QD mg, n=2, mean, read-out: T1/2 (converted)): 10.9 h | Tmax [11]: 4.5 h | AUC(0-t) (oral, 400 mg, Day 15, 400 bid mg, n=1, read-out: AUC0-24): 110000 ng·h/mL | Cmax [12]: 5900 ng/mL | Tmax [12]: 2 h | AUC(0-t) (oral, 400 mg, steady state, 400 BID mg, n=1, cancer patients, read-out: AUC0-24h): 110000 ng·h/mL | Cmax [13]: 5990 ng/mL | Tmax [13]: 2 h | AUC(0-t) (oral, 400 mg, steady state, 400 QD mg, n=2, mean, cancer patients, read-out: AUC0-24h): 33400 ng·h/mL | Cmax [14]: 2850 ng/mL | Tmax [14]: 4.5 h | half-life (po, human subjects, oral tablets, read-out: Effective t½ (converted)): ~24 h | half-life (po, human subjects, oral tablets, read-out: t1/2 (rate of elimination)): 10 to 25 h | Cmin (steady state, 10 QD mg, n=1, cancer patients): 16.0 ng/mL | Cmin (steady state, 20 QD mg, n=1, cancer patients): 76.4 ng/mL | Cmin (steady state, 40 QD mg, n=2, mean, cancer patients): 167 ng/mL | Cmin (steady state, 80 QD mg, n=2, mean, cancer patients): 614 ng/mL | Cmin (steady state, 120 QD mg, n=3, mean, cancer patients): 239 ng/mL | Cmin (steady state, 240 QD mg, n=2, mean, cancer patients): 463 ng/mL | Cmin (steady state, 400 BID mg, n=1, cancer patients): 3718 ng/mL | Cmin (steady state, 400 QD mg, n=2, mean, cancer patients): 589 ng/mL

— US10695296B2, “Formulations, methods, kit, and dosage forms for improved stability of an active pharmaceutical ingredient” (Asana BioSciences, LLC, priority 2017, dated 2020)
